Measurements as given in article doi:10.1101/2020.08.26.267799v1 (biorxiv, 2020).
pKd: −log10 of the molar value.

Target: Human insulin (HI) (Homo sapiens, UniProt P01308)
Experiment: ITC, insulin titrated into CBBG, one-site model
Format: binding

Human insulin (HI), sequence (P01308 25-54): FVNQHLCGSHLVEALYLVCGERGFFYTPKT
Human insulin (HI), sequence (P01308 90-110): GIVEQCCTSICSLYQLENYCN

For `CCOc1ccc(Nc2ccc(/C(=C3C=C/C(=[N+](/CC)Cc4cccc(S(=O)(=O)[O-])c4)C=C/3C)c3ccc(N(CC)Cc4cccc(S(=O)(=O)O)c4)cc3C)cc2)cc1` [Coomassie Brilliant Blue G-250], the pKd was 4.90.
